Starred links: 1 amine or outer side, 2 acyl side, 3 side chain; linkers in the order of their positions; H or OH if unused. Positions of bridges follow the written chain, without caps; N, C: chain ends. Non-standard residues stand in square brackets, D forms with d. Residues, ends and D or L forms follow the SMILES beside them. *: point of attachment. Bip(4'-NHBz) = N[C@@H](Cc1ccc(-c2ccc(NC(=O)c3ccccc3)cc2)cc1)C(=O)O; Bip(4'-NH) = O=C([C@H](Cc1ccc(-c2ccc(N[*:3])cc2)cc1)N[*:1])[*:2]; Indazole3carbonyl(1-CH2COOH) = O=C(O)Cn1nc(C(=O)*)c2ccccc21; Bip(4'-COOH) = N[C@@H](Cc1ccc(-c2ccc(C(=O)O)cc2)cc1)C(=O)O; X42 = O=C(O)Cn1cc(C[C@H](NC(=O)c2ccccc2)C(=O)*)c2ccccc21; X4 = N=C(NCCCc1cccc(N)c1)NCCC[C@@H](N[*:1])C(=O)[*:2]; X6 = N=C(NCCCCC(N)=O)NCCC[C@@H](N[*:1])C(=O)[*:2]; Ala(morpholin-4-yl) = N[C@@H](CN1CCOCC1)C(=O)O; Benzoyl(3-OCH2COOH) = O=C(O)COc1cccc(C(=O)*)c1; Phe(3-CONH2) = NC(=O)c1cccc(C[C@H](N)C(=O)O)c1; X41 = N=C(NCCCO)NCCC[C@@H](N[*:1])C(=O)[*:2]; X12 = N=C(NCCO)NCCC[C@@H](N[*:1])C(=O)[*:2]; Bip = N[C@@H](Cc1ccc(-c2ccccc2)cc1)C(=O)O; 2Pal = N[C@@H](Cc1ccccn1)C(=O)O; Tic = O=C(O)[C@@H]1Cc2ccccc2CN1; Cha = N[C@@H](CC1CCCCC1)C(=O)O; Tle = CC(C)(C)[C@H](N)C(=O)O; Aze = O=C(O)[C@@H]1CCN1; Sar = CNCC(=O)O
The compounds below were run against TNFα (Homo sapiens, UniProt P01375) (assay: TNF-Induced HEK-Blue Assay). Details: not given.
Sequence of TNFα (P01375 77-233 limits assumed): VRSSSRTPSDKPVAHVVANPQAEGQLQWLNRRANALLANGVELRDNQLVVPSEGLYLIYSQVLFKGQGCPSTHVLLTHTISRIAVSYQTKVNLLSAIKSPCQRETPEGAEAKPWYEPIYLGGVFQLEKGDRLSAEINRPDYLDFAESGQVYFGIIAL
Type: cell-based
For `CC[C@H](C)[C@@H]1NC(=O)[C@@H]2CCCN2C(=O)[C@H]([C@@H](C)CC)NC(=O)[C@@H](CCCNC(=N)N)NC(=O)[C@H](CC(=O)O)NC(=O)[C@H](Cc2ccccn2)NC(=O)CN(C)C(=O)[C@H](Cc2ccc(-c3ccc(NC(=O)[C@H](Cc4cn(CC(=O)O)c5ccccc45)NC(=O)c4ccccc4)cc3)cc2)NC(=O)[C@H](Cc2ccc(-c3ccccc3)cc2)NC(=O)[C@H](C(C)(C)C)NC(=O)CSC[C@@H](C(=O)NCC(N)=O)NC(=O)[C@H](CC(C)C)NC(=O)[C@H](Cc2cccc(C(N)=O)c2)NC1=O` [Example 380] ({CH2CO}-[Tle][Bip][Bip(4'-NH)](X42)[Sar][2Pal]D[dR]IPI[Phe(3-CONH2)]LCG-NH2; thioether N-13), the IC50 was 50 to 200 nM. With `CC(C)C[C@@H]1NC(=O)[C@H](Cc2ccc(O)cc2)NC(=O)[C@H](C(C)C)NC(=O)[C@@H]2Cc3ccccc3CN2C(=O)[C@H](C(C)C)NC(=O)[C@@H](CCCNC(=N)N)NC(=O)[C@H](CC(=O)O)NC(=O)[C@@H]2CCCN2C(=O)CN(C)C(=O)[C@H](Cc2ccc(-c3ccc(NC(=O)c4ccccc4)cc3)cc2)NC(=O)[C@H](Cc2ccc(-c3ccc(C(=O)O)cc3)cc2)NC(=O)[C@H](CC2CCCCC2)NC(=O)CSC[C@@H](C(=O)NCC(N)=O)NC1=O` [Example 383] ({CH2CO}-[Cha][Bip(4'-COOH)][Bip(4'-NHBz)][Sar]PD[dR]V[Tic]VYLCG-NH2; thioether N-13) the IC50 was 50 to 200 nM. With `CC(C)C[C@@H]1NC(=O)[C@H](CCCNC(=N)N)NC(=O)[C@H](C(C)C)NC(=O)[C@@H]2CCCN2C(=O)[C@H](C(C)C)NC(=O)[C@@H](CCCNC(=N)NCCO)NC(=O)[C@H](CC(=O)O)NC(=O)[C@@H]2CCCN2C(=O)CN(C)C(=O)[C@H](Cc2ccc(-c3ccc(NC(=O)c4nn(CC(=O)O)c5ccccc45)cc3)cc2)NC(=O)[C@H](Cc2ccc(-c3ccccc3)cc2)NC(=O)[C@H](CN2CCOCC2)NC(=O)CSC[C@@H](C(=O)NCC(N)=O)NC1=O` [Example 387] ({CH2CO}-[Ala(morpholin-4-yl)][Bip][Bip(4'-NH)](Indazole3carbonyl(1-CH2COOH))[Sar]PD[X12]VPVRLCG-NH2; thioether N-13) the IC50 was under 50 nM. `CC(C)C[C@@H]1NC(=O)[C@H](CCCNC(=N)N)NC(=O)[C@H](C(C)C)NC(=O)[C@@H]2CCCN2C(=O)[C@H](C(C)C)NC(=O)[C@@H](CCCNC(=N)NCCCO)NC(=O)[C@H](CC(=O)O)NC(=O)[C@@H]2CCCN2C(=O)CN(C)C(=O)[C@H](Cc2ccc(-c3ccc(NC(=O)c4nn(CC(=O)O)c5ccccc45)cc3)cc2)NC(=O)[C@H](Cc2ccc(-c3ccccc3)cc2)NC(=O)[C@H](CN2CCOCC2)NC(=O)CSC[C@@H](C(=O)NCC(N)=O)NC1=O` [Example 389] ({CH2CO}-[Ala(morpholin-4-yl)][Bip][Bip(4'-NH)](Indazole3carbonyl(1-CH2COOH))[Sar]PD[X41]VPVRLCG-NH2; thioether N-13) was tested, and the IC50 was under 50 nM. Work on `CC(C)C[C@@H]1NC(=O)[C@H](CCCNC(=N)N)NC(=O)[C@H](C(C)C)NC(=O)[C@@H]2CCCN2C(=O)[C@H](C(C)C)NC(=O)[C@@H](CCCNC(=N)NCCCCC(N)=O)NC(=O)[C@H](CC(=O)O)NC(=O)[C@@H]2CCCN2C(=O)CN(C)C(=O)[C@H](Cc2ccc(-c3ccc(NC(=O)c4nn(CC(=O)O)c5ccccc45)cc3)cc2)NC(=O)[C@H](Cc2ccc(-c3ccccc3)cc2)NC(=O)[C@H](CN2CCOCC2)NC(=O)CSC[C@@H](C(=O)NCC(N)=O)NC1=O` [Example 391] ({CH2CO}-[Ala(morpholin-4-yl)][Bip][Bip(4'-NH)](Indazole3carbonyl(1-CH2COOH))[Sar]PD[X6]VPVRLCG-NH2; thioether N-13) yielded an IC50 of 50 to 200 nM. `CC(C)C[C@@H]1NC(=O)[C@H](CCCNC(=N)N)NC(=O)[C@H](C(C)C)NC(=O)[C@@H]2CCCN2C(=O)[C@H](C(C)C)NC(=O)[C@@H](CCCNC(=N)NCCCc2cccc(N)c2)NC(=O)[C@H](CC(=O)O)NC(=O)[C@@H]2CCCN2C(=O)CN(C)C(=O)[C@H](Cc2ccc(-c3ccc(NC(=O)c4nn(CC(=O)O)c5ccccc45)cc3)cc2)NC(=O)[C@H](Cc2ccc(-c3ccccc3)cc2)NC(=O)[C@H](CN2CCOCC2)NC(=O)CSC[C@@H](C(=O)NCC(N)=O)NC1=O` [Example 393] ({CH2CO}-[Ala(morpholin-4-yl)][Bip][Bip(4'-NH)](Indazole3carbonyl(1-CH2COOH))[Sar]PD[X4]VPVRLCG-NH2; thioether N-13) showed an IC50 of under 50 nM.

Same assay, conditions: HEK-Blue-CD40L cells, NF-kB-driven secreted alkaline phosphatase reporter; TNFα 0.5 ng/ml; 18 h; read-out: TNF induced HEK-Blue assay IC50 value
For `CC[C@H](C)[C@@H]1NC(=O)[C@@H]2CCN2C(=O)[C@H]([C@@H](C)CC)NC(=O)[C@@H](CCCNC(=N)N)NC(=O)[C@H](CC(=O)O)NC(=O)[C@H](Cc2ccc(O)cc2)NC(=O)CN(C)C(=O)[C@H](Cc2ccc(-c3ccc(NC(=O)c4cccc(OCC(=O)O)c4)cc3)cc2)NC(=O)[C@H](Cc2ccc(-c3ccccc3)cc2)NC(=O)[C@H](C(C)(C)C)NC(=O)CSC[C@@H](C(=O)NCC(N)=O)NC(=O)[C@H](CC(C)C)NC(=O)[C@H](Cc2ccc(O)cc2)NC1=O` [Example 378] ({CH2CO}-[Tle][Bip][Bip(4'-NH)](Benzoyl(3-OCH2COOH))[Sar]YD[dR]I[Aze]IYLCG-NH2; thioether N-13), the IC50 was under 50 nM.
